{"source": "patent US20260345619A1", "about": "(Principia Biopharma Inc., priority 2023, published 2026)", "key": {"[1]": {"test": "Participants with ≥2, ≥3, ≥4, ≥5 additional reliever puffs of salbutamol/albuterol or levosalbutamol/levalbuterol", "format": "in vivo, human", "conditions": "for Number of participants with ≥2 additional reliever puffs vs baseline on 2 consecutive days / Number of participants with ≥3 additional reliever puffs vs baseline on 2 consecutive days / Number of participants with ≥4 additional reliever puffs vs baseline on 2 consecutive days / Number of participants with ≥5 additional reliever puffs vs baseline on 2 consecutive days / Participants with ≥2 additional reliever puffs vs baseline on 2 consecutive days, figure in parentheses (share) / Participants with ≥3 additional reliever puffs vs baseline on 2 consecutive days, figure in parentheses (share) / Participants with ≥4 additional reliever puffs vs baseline on 2 consecutive days, figure in parentheses (share) / Participants with ≥5 additional reliever puffs vs baseline on 2 consecutive days, figure in parentheses (share): 12-week treatment period", "method": "An analysis was performed on the number of participants with ≥2, ≥3, ≥4, and ≥5 additional reliever puffs of salbutamol/albuterol or levosalbutamol/levalbuterol compared with baseline on 2 consecutive days during the treatment period, to assess increase in reliever medication during 12-week treatment period."}, "[2]": {"conditions": "read-out: IC50 for RLK; cited from earlier work"}, "[3]": {"test": "Asthma Daytime Symptom Diary (ADSD) score", "format": "in vivo, human", "conditions": "for LS mean difference versus placebo, ADSD symptom score: Week 12", "excerpt": "ADSD and ANSD are PRO measures developed by the PRO Consortium′ Asthma Working Group. Both instruments have been designed to measure asthma symptoms in adult and adolescent (12 years of age and older) patients diagnosed with mild to severe asthma. ADSD and ANSD assess asthma severity based on patient self-report of asthma core symptoms.\nOther efficacy endpoints included: • Change from baseline in pre- and post-bronchodilator FEV1 and other lung function measurement (peak expiratory flow (PEF), forced vital capacity (FVC), forced expiratory flow (FEF) 25-75%) at each spirometry endpoint. • Asthma Control Questionnaire-5 (ACQ-5) score change from baseline at EOT and at each assessment time point. • Asthma Quality of Life Questionnaire with Standardized Activities (AQLQ(S)) Self-Administered score change from baseline at EOT and at each assessment time point. • Change from baseline at EOT and change from baseline at each week for asthma symptom scores in the morning and evening (ADSD and ANSD). Questionnaire was to be administered daily and score averaged weekly for analysis. • Change from baseline at EOT and change from baseline at each week in number of inhalations/day of albuterol or levalbuterol for symptom relief.\nThe ADSD and ANSD are PRO measures developed by the PRO Consortium′ Asthma Working Group. Both instruments have been designed to measure asthma symptoms in adult and adolescent (12 years of age and older) patients diagnosed with mild to severe asthma. ADSD and ANSD assess asthma severity based on patient self-report of asthma core symptoms, i.e., difficulty of breathing; wheezing; shortness of breath; chest tightness; chest pain; and cough. Patients were asked to complete the ADSD every night before they went to bed, thinking about their asthma symptoms on that day, from when they got up this morning until then; the ANSD when getting up, thinking about their asthma symptoms from the previous night from when they went to bed until then.\nBoth the ADSD and ANSD are composed of 6 items rated using an 11-point NRS that ranges from 0=None to 10=As bad as you can imagine (Gater et al. 2016). The participants were to record their daytime and nighttime asthma symptoms in an electronic diary, once in the evening and once in the morning, respectively. The participants were to complete the ADSD and the ANSD."}, "[4]": {"conditions": "healthy volunteers (N=51), even at supratherapeutic doses; cited from earlier work"}, "[5]": {"conditions": "healthy volunteers; cited from earlier work"}, "[6]": {"system": "bone marrow tyrosine kinase on chromosome X (BMX)", "conditions": "cited from earlier work"}, "platelet aggregation": {"system": "platelet aggregation", "conditions": "healthy volunteers or patients with ITP; cited from earlier work"}, "[7]": {"test": "Participant disposition: completion, discontinuation and reasons", "format": "in vivo, human", "excerpt": "Participants that met the criteria for a LOAC, at any time during the randomized IMP treatment phase, were to (be): • Discontinue early from IMP treatment, • Evaluated and receive treatment by the Investigator with standard of care according to standard medical practice. If practicable and safe, the participant was to undergo EOT Visit (Visit 14) assessment prior to the administration of rescue medications. • Resume their individual prescreening ICS/LABA background therapy and, • Followed for safety during a 4-week Post IMP Treatment Period.\nParticipants who discontinued IMP treatment prior to completing the 12-week IMP treatment (due to LOAC or due to early treatment discontinuation), were to be evaluated as soon as possible at the individual participant's EOT Visit and using procedures as planned for the EOT Visit at Week 12 (Visit 14). At their EOT visit, participants were to resume their prescreening ICS/LABA background therapy or appropriate therapy as needed per treating physician were to be resumed after the EOT study assessments had been performed and entered the 4-week safety follow-up period/Post IMP Treatment Period, concluding with the EOS Visit (Visit 16)."}, "[8]": {"conditions": "humans, oral; cited from earlier work"}, "other TEC family members": {"system": "other TEC family members", "conditions": "preclinical assays; cited from earlier work"}}}
{"smiles": "CC(C)(C=C(C#N)C(=O)N1CCC[C@@H](n2nc(-c3ccc(Oc4ccccc4)cc3F)c3c(N)ncnc32)C1)N1CCN(C2COC2)CC1", "note": "(mixture of isomers) [rilzabrutinib, (R)-2-[3-[4-amino-3-(2-fluoro-4-phenoxy-phenyl)pyrazolo[3,4-d]pyrimidin-1-yl]piperidine-1-carbonyl]-4-methyl-4-[4-(oxetan-3-yl)piperazin-1-yl]pent-2-enenitrile]", "values": [{"measurement": "Number of participants with ≥2 additional reliever puffs vs baseline on 2 consecutive days", "setting": "[1]; 400 mg BID, N = 32", "value": 6, "unit": "participants"}, {"measurement": "Number of participants with ≥3 additional reliever puffs vs baseline on 2 consecutive days", "setting": "[1]; 400 mg BID, N = 32", "value": 3, "unit": "participants"}, {"measurement": "Number of participants with ≥4 additional reliever puffs vs baseline on 2 consecutive days", "setting": "[1]; 400 mg BID, N = 32", "value": 2, "unit": "participants"}, {"measurement": "Number of participants with ≥5 additional reliever puffs vs baseline on 2 consecutive days", "setting": "[1]; 400 mg BID, N = 32", "value": 2, "unit": "participants"}, {"measurement": "Participants with ≥2 additional reliever puffs vs baseline on 2 consecutive days, figure in parentheses (share)", "setting": "[1]; 400 mg BID, N = 32", "value": 18.8}, {"measurement": "Participants with ≥3 additional reliever puffs vs baseline on 2 consecutive days, figure in parentheses (share)", "setting": "[1]; 400 mg BID, N = 32", "value": 9.4}, {"measurement": "Participants with ≥4 additional reliever puffs vs baseline on 2 consecutive days, figure in parentheses (share)", "setting": "[1]; 400 mg BID, N = 32", "value": 6.3}, {"measurement": "Participants with ≥5 additional reliever puffs vs baseline on 2 consecutive days, figure in parentheses (share)", "setting": "[1]; 400 mg BID, N = 32", "value": 6.3}, {"measurement": "Number of participants with ≥2 additional reliever puffs vs baseline on 2 consecutive days", "setting": "[1]; 400 mg TID, N = 64", "value": 11, "unit": "participants"}, {"measurement": "Number of participants with ≥3 additional reliever puffs vs baseline on 2 consecutive days", "setting": "[1]; 400 mg TID, N = 64", "value": 4, "unit": "participants"}, {"measurement": "Number of participants with ≥4 additional reliever puffs vs baseline on 2 consecutive days", "setting": "[1]; 400 mg TID, N = 64", "value": 3, "unit": "participants"}, {"measurement": "Number of participants with ≥5 additional reliever puffs vs baseline on 2 consecutive days", "setting": "[1]; 400 mg TID, N = 64", "value": 1, "unit": "participants"}, {"measurement": "Participants with ≥2 additional reliever puffs vs baseline on 2 consecutive days, figure in parentheses (share)", "setting": "[1]; 400 mg TID, N = 64", "value": 17.2}, {"measurement": "Participants with ≥3 additional reliever puffs vs baseline on 2 consecutive days, figure in parentheses (share)", "setting": "[1]; 400 mg TID, N = 64", "value": 6.3}, {"measurement": "Participants with ≥4 additional reliever puffs vs baseline on 2 consecutive days, figure in parentheses (share)", "setting": "[1]; 400 mg TID, N = 64", "value": 4.7}, {"measurement": "Participants with ≥5 additional reliever puffs vs baseline on 2 consecutive days, figure in parentheses (share)", "setting": "[1]; 400 mg TID, N = 64", "value": 1.6}, {"measurement": "number of participants with ≥2 to 5 additional reliever puffs compared to baseline", "setting": "[1]; both cohorts, vs. placebo arms, 12-week treatment", "value": "lower in the rilzabrutinib arms compared to the placebo arms"}, {"measurement": "IC50", "setting": "[2]", "value": 1.2, "unit": "nM"}, {"measurement": "LS mean ADSD change from baseline at Week 12", "setting": "[3]; 400 mg BID", "value": "−0.27"}, {"measurement": "LS mean difference versus placebo, ADSD symptom score", "setting": "[3]; 400 mg BID, 95% CI −1.03, 0.26, nominal p=0.2377", "value": "−0.39"}, {"measurement": "LS mean ADSD change from baseline at Week 12", "setting": "[3]; 400 mg TID", "value": "−0.43"}, {"measurement": "LS mean difference versus placebo, ADSD symptom score", "setting": "[3]; 400 mg TID, 95% CI −1.15, 0.14, nominal p=0.1276", "value": "−0.50"}, {"measurement": "ADSD symptom score (in words)", "setting": "[3]; both cohorts, Week 12, all components", "value": "improvement in ADSD and ANSD symptom score"}, {"measurement": "effect on cardiac repolarization", "setting": "[4]", "value": "does not exert clinically relevant effects on cardiac repolarization"}, {"measurement": "discontinuation due to an adverse event", "setting": "[5]", "value": "no participants discontinued treatment due to an adverse event"}, {"measurement": "most commonly reported adverse events", "setting": "[5]", "value": "gastrointestinal adverse events, including nausea/vomiting and diarrhea"}, {"measurement": "serious adverse events or deaths", "setting": "[5]", "value": "No serious adverse events or deaths were reported"}, {"measurement": "IC50", "setting": "[6]", "value": 1, "unit": "nM"}, {"measurement": "bleeding problems", "setting": "platelet aggregation", "value": "does not lead to bleeding problems"}, {"measurement": "Status at last contact: Dead", "setting": "[7]; 400 mg BID (N = 32)", "value": "0 n (%)"}, {"measurement": "permanent study intervention discontinuation: Adverse event", "setting": "[7]; 400 mg BID (N = 32)", "value": "2 (6.3) n (%)"}, {"measurement": "permanent study intervention discontinuation: Adverse event not related to COVID-19", "setting": "[7]; 400 mg BID (N = 32)", "value": "2 (6.3) n (%)"}, {"measurement": "permanent study intervention discontinuation: Adverse event related to COVID-19", "setting": "[7]; 400 mg BID (N = 32)", "value": "0 n (%)"}, {"measurement": "permanent study intervention discontinuation: Lack of efficacy", "setting": "[7]; 400 mg BID (N = 32)", "value": "0 n (%)"}, {"measurement": "permanent study intervention discontinuation: Loss of asthma control (LOAC)", "setting": "[7]; 400 mg BID (N = 32)", "value": "8 (25.0) n (%)"}, {"measurement": "study discontinuation: Adverse event", "setting": "[7]; 400 mg BID (N = 32)", "value": "1 (3.1) n (%)"}, {"measurement": "study intervention withdrawal by subject: Adverse event", "setting": "[7]; 400 mg BID (N = 32)", "value": "1 (3.1) n (%)"}, {"measurement": "Status at last contact: Dead", "setting": "[7]; 400 mg TID (N = 64)", "value": "0 n (%)"}, {"measurement": "permanent study intervention discontinuation: Adverse event", "setting": "[7]; 400 mg TID (N = 64)", "value": "5 (7.8) n (%)"}, {"measurement": "permanent study intervention discontinuation: Adverse event not related to COVID-19", "setting": "[7]; 400 mg TID (N = 64)", "value": "2 (3.1) n (%)"}, {"measurement": "permanent study intervention discontinuation: Adverse event related to COVID-19", "setting": "[7]; 400 mg TID (N = 64)", "value": "3 (4.7) n (%)"}, {"measurement": "permanent study intervention discontinuation: Lack of efficacy", "setting": "[7]; 400 mg TID (N = 64)", "value": "1 (1.6) n (%)"}, {"measurement": "permanent study intervention discontinuation: Loss of asthma control (LOAC)", "setting": "[7]; 400 mg TID (N = 64)", "value": "10 (15.6) n (%)"}, {"measurement": "study discontinuation: Adverse event", "setting": "[7]; 400 mg TID (N = 64)", "value": "0 n (%)"}, {"measurement": "study intervention withdrawal by subject: Adverse event", "setting": "[7]; 400 mg TID (N = 64)", "value": "2 (3.1) n (%)"}, {"measurement": "absorption", "setting": "[8]", "value": "rapidly absorbed"}, {"measurement": "half-life", "setting": "[8]", "value": "3 to 4", "unit": "h"}, {"measurement": "pharmacokinetic variability", "setting": "[8]", "value": "variable pharmacokinetics"}, {"measurement": "binding to other TEC family members over time", "setting": "other TEC family members", "value": "decayed rapidly over time"}]}
